Source: PMC8364686, “Safety, tolerability, pharmacokinetics and pharmacodynamics of single oral doses of BI 187004, an inhibitor of 11beta-hydroxysteroid dehydrogenase-1, in healthy male volunteers with overweight or obesity” (Clinical Diabetes and Endocrinology, 2021)
Values joined by “and” are separate entries in the source; they are usually repeats but may differ in a detail not shown here. Equal values may be shown once. Read-outs that look alike come from different tables or passages of the source.

Columns and labels:
[1] = Urinary excretion of BI 187004 (LC–MS/MS); assay type: in vivo, human
Text: For each accepted run, the acceptance criteria for the calibration standards and quality controls were met.

[2] = BI 187004 concentration in subcutaneous adipose tissue biopsies (LC–MS/MS); assay type: in vivo, human; details: for Kp at 10 h / Kp at 24 h / concentration at 10 h / concentration at 24 h: male, human, oral; for Kp at 10 h: read-out: AT:plasma ratio (range) 10 h; for Kp at 24 h: read-out: AT:plasma ratio (range) 24 h; for concentration at 10 h: read-out: AT C10 gMean (range); for concentration at 24 h: read-out: AT C24 gMean (range)
Procedure: The assay was qualified for the BI 187004 concentration range of 2.5—10,000 ng/g. The BI 187004 AT concentration data for study samples were generated from seven analytical runs. For each run, the acceptance criteria for the calibration standards and QC samples were met. Acceptance criteria for all sample analysis runs were ≤ 25% RSD (relative standard deviation / precision) and ± 25% RE (relative error / accuracy) for calibration standards and quality control samples.

N#Cc1ccc2c(c1)[C@H]1CCCN(C(=O)c3ccc4[nH]cnc4c3)[C@H]1C2 [BI 187004]
Fraction of dose excreted in urine (renal excretion), range across dose groups ([1]; 0–72 h collection interval): 3–5% and 3.00–4.93% | fe0-72 h (fraction eliminated in urine from 0 to 72 h) ([1]; 5 mg single oral dose): 3.00% | fe0-72 h (fraction eliminated in urine from 0 to 72 h) ([1]; 10 mg single oral dose): 4.03% | fe0-72 h (fraction eliminated in urine from 0 to 72 h) ([1]; 20 mg single oral dose): 4.93% | fe0-72 h (fraction eliminated in urine from 0 to 72 h) ([1]; 40 mg single oral dose): 4.21% | fe0-72 h (fraction eliminated in urine from 0 to 72 h) ([1]; 80 mg single oral dose): 4.55% | fe0-72 h (fraction eliminated in urine from 0 to 72 h) ([1]; 160 mg single oral dose): 4.75% | fe0-72 h (fraction eliminated in urine from 0 to 72 h) ([1]; 240 mg single oral dose): 4.88% | fe0-72 h (fraction eliminated in urine from 0 to 72 h) ([1]; 360 mg single oral dose): 4.25% | AT:plasma ratio (range) 24 h ([2]; 10 mg single dose, 24 h, only range printed): – (9.58 – 20.1) | AT C24 gMean (range) ([2]; 10 mg single dose, adipose tissue, 24 h, only range printed): – (9.91 – 22.6) nmol/L | Plasma concentration compared with AT concentration (times higher) ([2]; 24 h post dosing): approximately 10 | Ratio ATC24/PlasmaC24, range across dose groups ([2]; 24 h post dosing): 8.58—11.4 | Kp at 10 h ([2]; subcutaneous adipose tissue / plasma, 40 mg single dose): 10.1 | Kp at 24 h ([2]; subcutaneous adipose tissue / plasma, 40 mg single dose, 24 h): 8.58 | Kp at 10 h ([2]; subcutaneous adipose tissue / plasma, 80 mg single dose): 8.36 | Kp at 24 h ([2]; subcutaneous adipose tissue / plasma, 80 mg single dose, 24 h): 9.62 | Kp at 10 h ([2]; subcutaneous adipose tissue / plasma, 160 mg single dose): 13.7 | Kp at 24 h ([2]; subcutaneous adipose tissue / plasma, 160 mg single dose, 24 h): 10.3 | Kp at 24 h ([2]; subcutaneous adipose tissue / plasma, 240 mg single dose, 24 h): 9.96 | Kp at 10 h ([2]; subcutaneous adipose tissue / plasma, 360 mg single dose): 16.2 | Kp at 24 h ([2]; subcutaneous adipose tissue / plasma, 360 mg single dose, 24 h): 11.4 | Kp at 10 h ([2]; subcutaneous adipose tissue and plasma, 240 mg single dose): 25.1 | Kp at 10 h ([2]; subcutaneous adipose tissue, 10 mg single dose): 10.3 | concentration at 10 h ([2]; subcutaneous adipose tissue, 10 mg single dose, adipose tissue): 17.9 nM | Kp at 10 h ([2]; subcutaneous adipose tissue, 20 mg single dose): 9.97 | Kp at 24 h ([2]; subcutaneous adipose tissue, 20 mg single dose, 24 h): 10.8 | concentration at 10 h ([2]; subcutaneous adipose tissue, 20 mg single dose, adipose tissue): 38.1 nM | concentration at 24 h ([2]; subcutaneous adipose tissue, 20 mg single dose, adipose tissue, 24 h): 17.5 nM | concentration at 10 h ([2]; subcutaneous adipose tissue, 40 mg single dose, adipose tissue): 80.3 nM | concentration at 24 h ([2]; subcutaneous adipose tissue, 40 mg single dose, adipose tissue, 24 h): 27.5 nM | concentration at 10 h ([2]; subcutaneous adipose tissue, 80 mg single dose, adipose tissue): 128 nM | concentration at 24 h ([2]; subcutaneous adipose tissue, 80 mg single dose, adipose tissue, 24 h): 84.5 nM | concentration at 10 h ([2]; subcutaneous adipose tissue, 160 mg single dose, adipose tissue): 412 nM | concentration at 24 h ([2]; subcutaneous adipose tissue, 160 mg single dose, adipose tissue, 24 h): 168 nM | concentration at 10 h ([2]; subcutaneous adipose tissue, 240 mg single dose, adipose tissue): 653 nM | concentration at 24 h ([2]; subcutaneous adipose tissue, 240 mg single dose, adipose tissue, 24 h): 212 nM | concentration at 10 h ([2]; subcutaneous adipose tissue, 360 mg single dose, adipose tissue): 857 nM | concentration at 24 h ([2]; subcutaneous adipose tissue, 360 mg single dose, adipose tissue, 24 h): 307 nM
